Assay results published in patent US9434719B2, “3-pyrimidin-4-yl-oxazolidin-2-ones as inhibitors of mutant IDH” (NOVARTIS AG, priority 2013, dated 2016).
Counter-ions that a name gives are not always drawn.

Experiments:
Assay type in all cases: in vitro ADME
[1] = Metabolic stability in liver microsomes, Method I, rat; details: 1 μM test compound; for microsomal CLint at 1 μM: male, Sprague-Dawley, liver microsomes; for microsomal CLint at 1 μM / microsomal CLint: rat; for microsomal CLint: microsomes
Procedure: (§1) Determination of Metabolic Stability in Liver Microsomes—Method I
(§2) The in vitro metabolic stability assay was performed in a 96-well glass plate with shaking incubation at 37° C. A 10 mM DMSO stock solution of the test compound was sequentially diluted 1:1000 to yield a final reaction concentration of 1 μM in 50 mM KPi. […] 30 μL of the 10 μM solution containing the test compound was added to 120 μL of microsomal protein for 150 μL enzyme-compound mixture. The reaction was initiated by adding 150 μL of cofactor solution (2 mM NADPH, 4 mM MgCl in 50 mM KPi) to the enzyme-compound mixture, and the final reaction concentrations are listed in the table below.
(§3) At 0, 5, 10 and 30 minute time points in the reaction, reaction aliquots (50 μL) were removed and the reactions were terminated by the addition of acetonitrile (150 μL) containing a mass spectrometry internal standard (1 μM glyburide). The samples were centrifuged and the supernatants analyzed by LC-MS/MS for quantization of remaining compound.
(§4) Analysis of the samples was performed on a high performance liquid chromatography-tandem mass spectrometry (LC/MS) system consisting of a Thermo TSQ Quantum Ultra mass spectrometer, an H-ESI ion source, a CTC-HTS Pal autosampler, and an Agilent LC Pump.
(§5) Mobile phase A consisted of purified water containing 0.01% formic acid. Mobile phase B consisted of acetonitrile containing 0.01% formic acid. The flow rate was 1 mL/min. The injection volume was 10 μL. Compounds were detected using the Thermo QuikQuan software which collects intensity data for all fragments related to the molecular weight of the test compound. After collection of the raw data, the software identifies and integrates the peak of the strongest intensity.
(§6) Each microsomal elimination rate, kmic, was based on a 4-point elimination curve tested in singlet. LC-MS/MS raw data for a reaction plate was returned as integrated analyte peak areas for the test compound and internal standard used in the quench solution for the reaction to enable use of analyte:internal standard peak area ratios (PARs) for all data comparisons. The reaction time point (e.g. 0, 5, 20 or 30 minutes) was plotted versus the natural logarithm of percent test compound remaining relative to 0 minutes (based on relative PAR).

[2] = Metabolic stability in liver microsomes, Method I, mouse; details: for microsomal CLint at 1 μM: male, CD-1, 1 μM test compound; for microsomal CLint: 1 μM test compound
Procedure: as §1, §2, §3, §4, §5, §6

[3] = Metabolic stability in liver microsomes, Method I, human; details: 1 μM test compound; for microsomal CLint at 1 μM: pooled liver microsomes
Procedure: as §1, §2, §3, §4, §5, §6

[4] = Metabolic stability in liver microsomes, Method II, rat; details: 1 μM test compound, NADPH + UDPGA; for microsomal CLint at 1 μM: male, Sprague-Dawley
Procedure: Determination of Metabolic Stability in Liver Microsomes—Method II
The in vitro metabolic stability assay was performed in a 96-deep-well plate with incubation at 37° C. 10 mM DMSO stock solution of the test compound was diluted 1:20 in acetonitrile, followed by an additional 1:10 dilution in 100 mM potassium phosphate buffer (KPi) to yield a final reaction concentration of 1 μM. […] 290 μL of cofactor solution (1.7 mM NADPH, 1.7 mM UDPGA, 3.4 mM MgCl in 100 mM KPi) was added to 200 μL of microsomal protein for a final volume of 490 μL. The reaction was initiated by adding 10 μL of the 50 μM test solution to 490 μL of microsomal protein for a final volume 500 μL enzyme-compound mixture.
At 0, 5, 15 and 30 minute time points in the reaction, reaction aliquots (75 μL) were removed and the reactions were terminated by the addition of 50:50 acetonitrile/methanol solution (75 μL) containing a mass spectrometry internal standard (0.5 μM glyburide). The samples were centrifuged at 4000 RPM for 10 minutes. Supernatants (15 μL aliquots) were transferred to a new plate where each well contains 90 μL of deionized water. The supernatants solution were analyzed by UPLC/MS/MS for quantitation of parent remaining compound under multiple reactions monitoring mode (MRM) in positive mode.
Analysis of the samples was performed on an ultra-performance liquid chromatography-tandem mass spectrometry (UPLC/MS/MS) system consisting of an AB Sciex Qtrap 5500 mass spectrometer, AB Sciex Turbo V ion source, Waters Acquity Sample Organizer, Waters Acquity Column manager, Waters Acquity Sample manager, and a Waters Acquity Binary Solvent Manager. Chromatographic separation of analyte and internal standard was achieved using a reverse phase C-18 column (50×2.1 mm, 1.7 μm, Acquity UPLC BEH C-18) with the following UPLC mobile phases and elution gradient:
UPLC mobile phase A: 0.25% formic acid in 5% methanol; mobile phase B: 0.25% formic acid in 95% water.
The injection volume was 5 μL. Compounds were detected using Analyst 1.5.1 software which collects intensity data for all fragments related to the molecular weight of the test compound. After collection of the raw data, the software identifies and integrates the peak of the strongest intensity.
Each microsomal elimination rate, k, was based on a 4-point elimination curve tested in duplicates. LC-MS/MS raw data for a reaction plate was returned as integrated analyte peak areas for the test compound and internal standard used in the quench solution for the reaction to enable use of analyte:internal standard peak area ratios (PARs) for all data comparisons. The reaction time point (e.g. 0, 5, 15 and 30 minutes) was plotted versus the natural logarithm of percent test compound remaining relative to 0 minutes (based on relative PAR). The slope of this clearance plot, k, was used to calculate the in vitro half-life.
[formula] The intrinsic clearance value, CLint (expressed as μL/min/mg microsomal protein) calculation is shown below:
[formula] Where V=the incubation volume (mL) and M=the microsomal protein content in the incubation (mg)

microsomal CLint at 1 μM [1] [µL/min/mg]	microsomal CLint at 1 μM [2] [µL/min/mg]	microsomal CLint at 1 μM [3] [µL/min/mg]	SMILES	further results
69.4	–	–	Cc1ccc(-c2noc(C(C)Nc3ncc(F)c(N4C(=O)OC[C@@H]4[C@@H](C)O)n3)n2)cc1F (single isomer, unassigned) [Example 122]	–
68.8	–	–	CC(Nc1nccc(N2C(=O)OC[C@@H]2[C@@H](C)O)n1)c1nc(-c2ccc3c(c2)OC(F)(F)O3)no1 (single isomer, unassigned) [Example 169]	Rat microsomal stability CLint [1]: 60.93 µL/min/mg
48.5	–	–	CC(Nc1nccc(N2C(=O)OC[C@@H]2[C@@H](C)O)n1)c1nc(-c2ccc(C(F)(F)F)cc2)no1 (single isomer, unassigned) [Example 174]	–
–	56.3	39.8	CC(Nc1nccc(N2C(=O)OC[C@@H]2[C@@H](C)O)n1)c1nc(-c2ccc(C(F)(F)F)cc2)no1 (single isomer, unassigned) [Example 175]	Rat microsomal stability CLint [1]: 50.51 µL/min/mg
56.6	–	–	CC(Nc1nccc(N2C(=O)OC[C@@H]2[C@@H](C)O)n1)c1nc(-c2ccc(OC(F)(F)F)cc2)no1 (single isomer, unassigned) [Example 181]	–
–	–	–	C[C@H](Nc1ncc(F)c(N2C(=O)OC[C@@H]2CF)n1)c1cn(-c2ccc(C(F)F)cc2)cn1 [434 as TFA salt]	microsomal CLint [2]: 10.7 µL/min/mg; microsomal CLint [3]: < 7.7 µL/min/mg; microsomal CLint [4]: 10.8 µL/min/mg; microsomal CLint [1]: 41 µL/min/mg
–	–	–	C[C@H](Nc1nccc(N2C(=O)OC[C@@H]2[C@H](C)F)n1)c1cn(-c2ccc(C(F)F)cc2)cn1 [456 as TFA salt]	microsomal CLint [3]: 16.8 µL/min/mg; microsomal CLint [1]: 44.7 µL/min/mg
–	–	–	C[C@H](Nc1nccc(N2C(=O)OC[C@@H]2CF)n1)c1cn(-c2ccc(Cl)c(F)c2)cn1 [473 as TFA salt]	microsomal CLint [2]: 17.7 µL/min/mg; microsomal CLint [3]: < 7.7 µL/min/mg; microsomal CLint [4]: 33.3 µL/min/mg; microsomal CLint [1]: 72.5 µL/min/mg
–	–	–	C[C@H](Nc1nccc(N2C(=O)OC[C@@H]2CF)n1)c1cn(-c2ccc(C(F)F)c(F)c2)cn1 [475 as TFA salt]	microsomal CLint [2]: 15.7 µL/min/mg; microsomal CLint [3]: < 7.7 µL/min/mg; microsomal CLint [4]: 16.2 µL/min/mg; microsomal CLint [1]: 54 µL/min/mg
49.1	173	121	C[C@H](Nc1nccc(N2C(=O)OC[C@@H]2[C@H](C)O)n1)c1ccc(CN2CCN(C)C(C)(C)C2)c(F)c1 [Example 48, (R)-3-(2-((S)-1-(3-fluoro-4-((3,3,4-trimethylpiperazin-1-yl)methyl)phenyl)ethylamino)pyrimidin-4-yl)-4-((S)-1-hydroxyethyl)oxazolidin-2-one]	–
58.4	63.1	–	C[C@H](Nc1nccc(N2C(=O)OC[C@@H]2[C@@H](C)O)n1)c1ccc(-c2ccnc(C(F)(F)F)c2)cn1 [Example 55, (R)-4-((R)-1-hydroxyethyl)-3-(2-(((S)-1-(2′-(trifluoromethyl)-[3,4′-bipyridin]-6-yl)ethyl)amino)pyrimidin-4-yl)oxazolidin-2-one]	–
34.6	67.7	66.4	Cc1cc(-c2ccnc(C(F)(F)F)c2)cnc1[C@H](C)Nc1nccc(N2C(=O)OC[C@@H]2[C@@H](C)O)n1 [Example 61, (R)-4-((R)-1-hydroxyethyl)-3-(2-(((S)-1-(5-methyl-2′-(trifluoromethyl)-[3,4′-bipyridin]-6-yl)ethyl)amino)pyrimidin-4-yl)oxazolidin-2-one]	–
42.9	51	31.1	C[C@H](Nc1nccc(N2C(=O)OC[C@@H]2[C@@H](C)N)n1)c1cnc(-c2ccc(Cl)cc2)s1 [Example 380, (S)-4-((R)-1-aminoethyl)-3-(2-(((S)-1-(2-(4-chlorophenyl)thiazol-5-yl)ethyl)amino)pyrimidin-4-yl)oxazolidin-2-one]	microsomal CLint at 1 μM [4]: 30.2 µL/min/mg
30.4	33.1	< 7.7	C[C@H](Nc1nccc(N2C(=O)OC[C@@H]2[C@H](C)F)n1)c1cn(-c2ccc(F)cc2)cn1 [Example 401, (R)-4-((S)-1-fluoroethyl)-3-(2-(((S)-1-(1-(4-fluorophenyl)-1H-imidazol-4-yl)ethyl)amino)pyrimidin-4-yl)oxazolidin-2-one]	microsomal CLint at 1 μM [4]: 92.4 µL/min/mg
50.8	35.5	28.3	C[C@H](Nc1nccc(N2C(=O)OC[C@@H]2[C@H](C)F)n1)c1ncc(-c2ccnc(C(F)(F)F)c2)cc1F [Example 463, (R)-3-(2-(((S)-1-(5-fluoro-2′-(trifluoromethyl)-[3,4′-bipyridin]-6-yl)ethyl)amino)pyrimidin-4-yl)-4-((S)-1-fluoroethyl)oxazolidin-2-one]	microsomal CLint at 1 μM [4]: 49.8 µL/min/mg
75.6	275	53.3	C[C@H](Nc1nccc(N2C(=O)OC[C@@H]2[C@H](C)F)n1)c1ncc(-c2cccc(C(F)(F)F)c2F)cn1 [Example 467, (R)-3-(2-(((S)-1-(5-(2-fluoro-3-(trifluoromethyl)phenyl)pyrimidin-2-yl)ethyl)amino)pyrimidin-4-yl)-4-((S)-1-fluoroethyl)oxazolidin-2-one]	microsomal CLint at 1 μM [4]: 85.4 µL/min/mg
30.5	28.9	70.1	C[C@H](Nc1nccc(N2C(=O)OC[C@@H]2[C@H](C)F)n1)c1ccc(-c2ccnc(C(F)(F)F)c2)cn1 [Example 468, (R)-4-((S)-1-fluoroethyl)-3-(2-(((S)-1-(2′-(trifluoromethyl)-[3,4′-bipyridin]-6-yl)ethyl)amino)pyrimidin-4-yl)oxazolidin-2-one]	–
132	–	–	Cc1cc(-c2cnc([C@H](C)Nc3nccc(N4C(=O)OC[C@@H]4[C@H](C)F)n3)nc2)ccc1F [Example 469, (R)-3-(2-(((S)-1-(5-(4-fluoro-3-methylphenyl)pyrimidin-2-yl)ethyl)amino)pyrimidin-4-yl)-4-((S)-1-fluoroethyl)oxazolidin-2-one]	–
52.8	47.3	83.6	Cc1cc([C@H](C)Nc2ncc(F)c(N3C(=O)OC[C@@H]3[C@H](C)F)n2)ncc1-c1ccnc(C(F)(F)F)c1 [Example 470, (R)-3-(5-fluoro-2-(((S)-1-(4-methyl-2′-(trifluoromethyl)-[3,4′-bipyridin]-6-yl)ethyl)amino)pyrimidin-4-yl)-4-((S)-1-fluoroethyl)oxazolidin-2-one]	–
65.2	51.5	35.6	C[C@H](Nc1ncc(F)c(N2C(=O)OC[C@@H]2CF)n1)c1ncc(-c2ccc(Cl)cc2)o1 [Example 480, (R)-3-(2-(((S)-1-(5-(4-chlorophenyl)oxazol-2-yl)ethyl)amino)-5-fluoropyrimidin-4-yl)-4-(fluoromethyl)oxazolidin-2-one]	–

SMILES	microsomal CLint at 1 μM [1] [µL/min/mg]	microsomal CLint at 1 μM [2] [µL/min/mg]	microsomal CLint at 1 μM [3] [µL/min/mg]	further results
C[C@H](Nc1nccc(N2C(=O)OC[C@@H]2CF)n1)c1cn(-c2ccc(Cl)cc2)cn1 [Example 404, (R)-3-(2-(((S)-1-(1-(4-chlorophenyl)-1H-imidazol-4-yl)ethyl)amino)pyrimidin-4-yl)-4-(fluoromethyl)oxazolidin-2-one]	44.6	18.7	< 7.7	microsomal CLint at 1 μM [4]: 75.4 µL/min/mg
